Laboratory results published in publication PMC8395767, “Worsening of the Toxic Effects of (±)Cis-4,4′-DMAR Following Its Co-Administration with (±)Trans-4,4′-DMAR: Neuro-Behavioural, Physiological, Immunohistochemical and Metabolic Studies in Mice” (International Journal of Molecular Sciences, 2021).

Key:
[1] = recent pharmacokinetic study; cited from earlier work
iNOS = experiment: Immunohistochemistry, frontal cortex: iNOS; type: in vivo, mice
Description: (§1) Following the acute death or the sacrifice of the animals (after 5-h observation period by dislocation of the spine), brains were taken. These were fixed in 4% buffered formalin and then sampled and incorporated into the paraffin (Leica ASP300 processor, Histoline TEC2900 incorporator; Leica Microsystems Srl, Buccinasco, Milano, Italy). Subsequently, the cut (performed with the Leica HistoCore autocut microtome; Leica Microsystems Srl, Buccinasco, Milano, Italy) was designed to create sections with a thickness of 5 µm for each sample.
(§2) On 5-µm-thick paraffined […] sections, we evaluated the expression of a panel of markers: heat shock proteins (HSP27, HSP70, HSP90), SMAC/DIABLO, NF-kB, iNOS, NOX-2, NT, 8-OHDG.
(§3) We used a detection system composed of a biotinylated secondary antibody and HRP-conjugated streptavidin (4plus HRP Universal Detection, Biocare Medical). 3′-,3Diaminobenzidine (DAB) and H2O2 (Betazoid DAB Chromogen Kit, Biocare Medical, Concord, CA, USA) were used as chromogen/substrate. […] In the pictures (sections of the frontal cortex; Figure 3, Figure 4 and Figure 5) to evaluate the variation in the expression of markers (Smac, NOX2, iNOS, 8-OHdG, NT, HSP27, HSP70, HSP90) following treatments, the change in intensity of brown colour (staining of the immunohistochemical technique) in the control and treated tissue was measured. Quantification of Smac, NOX2, iNOS, 8-OHdG, NT, HSP27, HSP70 and HSP90 positive-stained areas was performed by the ImageJ software (imagej.nih.gov/ij/ Accessed date 12 May 2020). […] Positivity was expressed as an extension of the stained analysed area.
(§4) Sweating and salivation were expressed as frequency (e.g., % of animals that developed symptoms); psychomotor agitation was expressed as frequency (% of animals) and duration (total time in mins). Core temperature values were expressed as the difference between control temperature (before injection) and temperature following drug administration (Δ°C). Aggressiveness was expressed as frequency (% of animals which become aggressive) and score (number of bites). […]

[2] = Excretion studies on urine samples (LC-MS/MS); type: in vivo, mice
Experimental: To study the possible metabolic interaction between cis and trans isomers, we chose to evaluate urinary excretion and metabolic profile of 4,4′-DMAR, as this allowed us to study and correlate physiological and neuro-behavioural responses in the same individual. For the in vivo studies, three different groups of mice were selected. To the first group, a dose of 10 mg/kg of cis-4,4′-DMAR was administered. To the second group, a dose of 10 mg/kg of both cis and trans-4,4′-DMAR was administered. The third group was selected for the collection of urine blank samples. Urine samples were collected in the range of 0–6 h after 4,4′-DMAR or vehicle were intraperitoneally injected.
Urine samples were treated and analysed through a protocol already used by our group for the analysis of the excretion of stimulant drugs in mice. Briefly, our protocol allowed the conversion of conjugated metabolites (i.e., sulfo- and glucorono-conjugates) to phase I metabolites after two hydrolysis steps. […] The residue was reconstituted with 50 μL of mobile phase and analysed with a targeted LC-MS/MS technique. In details, samples were analysed using an Agilent 1200 series HPLC instrument equipped with a SUPELCO Discovery C18 column (15 cm × 2.1 mm × 5 µm) coupled with an API4000 QqQ mass spectrometer (Sciex, 500 Old Connecticut Path, Framingham, MA, USA). […]

HSP27 = experiment: Immunohistochemistry, frontal cortex: HSP27; type: in vivo, mice
Description: as §1, §2
We used a detection system composed of a biotinylated secondary antibody and HRP-conjugated streptavidin (4plus HRP Universal Detection, Biocare Medical). 3′-,3Diaminobenzidine (DAB) and H2O2 (Betazoid DAB Chromogen Kit, Biocare Medical, Concord, CA, USA) were used as chromogen/substrate. The subsequent counterstaining with haematoxylin–eosin allowed the visualization of cell morphology and nuclei. Once this procedure was completed, the slides were mounted and observed under optical microscope. In the pictures (sections of the frontal cortex; Figure 3, Figure 4 and Figure 5) to evaluate the variation in the expression of markers (Smac, NOX2, iNOS, 8-OHdG, NT, HSP27, HSP70, HSP90) following treatments, the change in intensity of brown colour (staining of the immunohistochemical technique) in the control and treated tissue was measured. Quantification of Smac, NOX2, iNOS, 8-OHdG, NT, HSP27, HSP70 and HSP90 positive-stained areas was performed by the ImageJ software (imagej.nih.gov/ij/ Accessed date 12 May 2020). […] Positivity was expressed as an extension of the stained analysed area.
Sweating and salivation were expressed as frequency (e.g., % of animals that developed symptoms); psychomotor agitation was expressed as frequency (% of animals) and duration (total time in mins). Core temperature values were expressed as the difference between control temperature (before injection) and temperature following drug administration (Δ°C). Aggressiveness was expressed as frequency (% of animals which become aggressive) and score (number of bites). Convulsions were expressed as frequency (% of animals that developed seizure), episodes (e.g., number of seizure events), latency of first episode (sec.) and duration of each episode (sec.). Lethality was expressed as frequency (% of animals that died during the observation period (5 h) or during the following 24 h). […] Regarding immunohistochemical analysis, positivity was expressed as the extension of stained analysed area. Results were expressed as means ± mean standard error (SEM). […]

8-OHdG = experiment: Immunohistochemistry, frontal cortex: 8-OHdG; type: in vivo, mice; details: for Immunoreactivity of 8-OHdG in the frontal cortex: 30 and 60 mg/kg, vs control
Description: as §1, §2, §3, §4

HSP70 = experiment: Immunohistochemistry, frontal cortex: HSP70; type: in vivo, mice
Description: as §1, §2, §3, §4

3-nitrotyrosine (NT) = experiment: Immunohistochemistry, frontal cortex: NT; type: in vivo, mice; details: vs control
Description: as §1, §2
We used a detection system composed of a biotinylated secondary antibody and HRP-conjugated streptavidin (4plus HRP Universal Detection, Biocare Medical). 3′-,3Diaminobenzidine (DAB) and H2O2 (Betazoid DAB Chromogen Kit, Biocare Medical, Concord, CA, USA) were used as chromogen/substrate. The subsequent counterstaining with haematoxylin–eosin allowed the visualization of cell morphology and nuclei. Once this procedure was completed, the slides were mounted and observed under optical microscope. In the pictures (sections of the frontal cortex; Figure 3, Figure 4 and Figure 5) to evaluate the variation in the expression of markers (Smac, NOX2, iNOS, 8-OHdG, NT, HSP27, HSP70, HSP90) following treatments, the change in intensity of brown colour (staining of the immunohistochemical technique) in the control and treated tissue was measured. Quantification of Smac, NOX2, iNOS, 8-OHdG, NT, HSP27, HSP70 and HSP90 positive-stained areas was performed by the ImageJ software (imagej.nih.gov/ij/ Accessed date 12 May 2020). One image for each animal of the different experimental groups was processed. Positivity was expressed as an extension of the stained analysed area.
Sweating and salivation were expressed as frequency (e.g., % of animals that developed symptoms); psychomotor agitation was expressed as frequency (% of animals) and duration (total time in mins). Core temperature values were expressed as the difference between control temperature (before injection) and temperature following drug administration (Δ°C). Aggressiveness was expressed as frequency (% of animals which become aggressive) and score (number of bites). Convulsions were expressed as frequency (% of animals that developed seizure), episodes (e.g., number of seizure events), latency of first episode (sec.) and duration of each episode (sec.). Lethality was expressed as frequency (% of animals that died during the observation period (5 h) or during the following 24 h). The statistical analysis of the effects of the individual substances in different concentrations were performed using a one-way ANOVA followed by a Bonferroni test for multiple comparisons. A Student’s t-test was used to determine statistical significance (p < 0.05) between two groups. Regarding immunohistochemical analysis, positivity was expressed as the extension of stained analysed area. Results were expressed as means ± mean standard error (SEM). Data were analysed by one-way analysis of variance (ANOVA), followed by Tukey’s post-hoc test. For all tests, a p value of <0.05 was considered statistically significant. All statistical analyses were performed using GraphPad Prism 8 software for Windows (La Jolla, CA, USA).

DAT = system: DAT; design: method as in PMID 25331619; details: rat brain tissue, lower potency than (±)cis-4,4′-DMAR; cited from earlier work
SERT = system: SERT; design: method as in PMID 25331619; details: rat brain tissue, lower potency than (±)cis-4,4′-DMAR; cited from earlier work
NET = system: NET; design: method as in PMID 25331619; details: rat brain tissue, lower potency than (±)cis-4,4′-DMAR; cited from earlier work

## Cc1ccc(C2OC(N)=NC2C)cc1 (stereo not drawn) [cis-4,4’-DMAR, 4-methyl-5-(4-methylphenyl)-4,5-dihydrooxazol-2-amine]
[1]
  Metabolism and excretion in the mouse urine: metabolised and excreted
iNOS; 60 mg/kg, vs control
  Immunoreactivity of iNOS in the frontal cortex: increased
iNOS; 60 mg/kg, vs control, listed as (±)cis
  Immunoreactivity of iNOS in the frontal cortex: large increase
[2]; co-administered with (±)trans-4,4′-DMAR 10 mg/kg, vs cis alone
  Urinary excretion of the parent compound (normalised to the sum of 4,4′-DMAR and its metabolites, Figure 7B): increase
HSP27; 10 mg/kg alone
  Immunoreactivity of HSP27 in the frontal cortex: ineffective
HSP27; 30 and 60 mg/kg, vs control
  Immunoreactivity of HSP27 in the frontal cortex: increased
HSP27; 30 and 60 mg/kg, vs control, listed as (±)cis
  Immunoreactivity of HSP27 in the frontal cortex: overexpressed
8-OHdG
  Immunoreactivity of 8-OHdG in the frontal cortex: increased
8-OHdG; listed as (±)cis
  Immunoreactivity of 8-OHdG in the frontal cortex: overexpressed
HSP70; 10 mg/kg alone
  Immunoreactivity of HSP70 in the frontal cortex: ineffective
HSP70; 30 and 60 mg/kg, vs control
  Immunoreactivity of HSP70 in the frontal cortex: increased
3-nitrotyrosine (NT); 10 mg/kg
  Immunoreactivity of 3-nitrotyrosine (NT) in the frontal cortex: reduced
3-nitrotyrosine (NT); 30 mg/kg
  Immunoreactivity of 3-nitrotyrosine (NT) in the frontal cortex: increased
3-nitrotyrosine (NT); 30 mg/kg, listed as (±)cis
  Immunoreactivity of 3-nitrotyrosine (NT) in the frontal cortex: statistically significant increase
3-nitrotyrosine (NT); 60 mg/kg
  Immunoreactivity of 3-nitrotyrosine (NT) in the frontal cortex: did not affect

## Cc1ccc(C2OC(N)=NC2C)cc1 (stereo not drawn) [trans-4,4’-DMAR, 4-methyl-5-(4-methylphenyl)-4,5-dihydrooxazol-2-amine]
[1]
  Metabolism and excretion in the mouse urine: not metabolised
DAT
  Mode of action at DAT: substrate-type releaser
iNOS; 30 mg/kg alone
  Immunoreactivity of iNOS in the frontal cortex: ineffective
[2]; mice urine
  Phase I/II metabolism: did not exhibit
HSP27; 30 mg/kg alone
  Immunoreactivity of HSP27 in the frontal cortex: ineffective
8-OHdG; 30 mg/kg alone
  Expression of 8-OHdG in the frontal cortex: ineffective
SERT
  Mode of action at SERT: uptake blocker
HSP70; 30 mg/kg alone
  Immunoreactivity of HSP70 in the frontal cortex: ineffective
3-nitrotyrosine (NT); 30 mg/kg
  Immunoreactivity of 3-nitrotyrosine (NT) in the frontal cortex: ineffective
NET
  Mode of action at NET: substrate-type releaser
